Square brackets hold non-standard residues; d marks the D form. Peptide text beside a SMILES is read from it. * marks the point of attachment. PhAc = O=C(Cc1ccccc1)*
Legend:
SJL/J mice = assay: Experimental autoimmune encephalomyelitis in mice; format: in vivo; details: 1 mg/mouse intraperitoneally at days 8 and 9; FIG. 6
Description: EAE was induced in female SJL/J mice (8 to 14 weeks old) by immunization on day zero with 50 μg of a compound corresponding to positions 139-151 of PLP emulsified in a 1:1 mixture of PBS and complete Freund's adjuvant (CFA). Each mouse was injected with 0.2 ml of the adjuvant emulsion subcutaneously (s.c.) at two sites in the hind flank. All mice received 10^7 killed Bordetella pertussis units in 100 μl were injected intravenously 24 to 72 hours later.
Mice were observed daily, beginning at day 8 for clinical signs of EAE, and disease was scored on a scale of 0-5 as: 0=no disease; 1=floppy tail; 2=moderate hind limb weakness; 3=paraparesis; 4=paraplegis with moderate forelimb weakness; 5=qualdriplegis or premoribund state.
The inhibitor compound, Compound ID No. 896.52, N-phenylacetyl-Leu-Asp-Phe-D-Pro-NH2 was administered intraperitoneally at 1 mg/mouse in 0.2 ml of incomplete Freund's adjuvant at days 8 and 9. A compound having a scrambled sequence [N-phenylacetyl-Asp-Leu-Phe-D-Pro-NH2 ] was similarly administered to serve as a control.
Summed or averaged scores for clinical signs were plotted vs. time. The area under the resulting curves was calculated between day 8 and day 35 to calculate percentage inhibition of EAE by an inhibitor compound. The percent inhibition was calculated as follows:
[…]

[1] = Retention of potency in PBS containing 10 percent mouse or human serum; format: in vitro ADME; details: PBS at 7.2-7.4 containing 10 percent mouse or human serum; 24 hours
VLA-4 receptor = target: T1, VLA-4 receptor (Homo sapiens, UniProt P05556+P13612); assay: In vitro binding assay: inhibition of binding of 51Cr-labeled Jurkat cells to solid phase-bound CS-1 compound (SEQ ID NO:1); format: cell-based; details: for Relative Potency: binding inhibition potency (IC50) normalized to standard compound of SEQ ID NO:3 = 1, multiple assays averaged, about one-tenth or less assigned zero
T1 construct: inflammatory cells that contain the VLA-4 receptor [Jurkat cells; host or cells: Jurkat cells (human T lymphoblastic line)
T1 sequence (P13612 34-1032): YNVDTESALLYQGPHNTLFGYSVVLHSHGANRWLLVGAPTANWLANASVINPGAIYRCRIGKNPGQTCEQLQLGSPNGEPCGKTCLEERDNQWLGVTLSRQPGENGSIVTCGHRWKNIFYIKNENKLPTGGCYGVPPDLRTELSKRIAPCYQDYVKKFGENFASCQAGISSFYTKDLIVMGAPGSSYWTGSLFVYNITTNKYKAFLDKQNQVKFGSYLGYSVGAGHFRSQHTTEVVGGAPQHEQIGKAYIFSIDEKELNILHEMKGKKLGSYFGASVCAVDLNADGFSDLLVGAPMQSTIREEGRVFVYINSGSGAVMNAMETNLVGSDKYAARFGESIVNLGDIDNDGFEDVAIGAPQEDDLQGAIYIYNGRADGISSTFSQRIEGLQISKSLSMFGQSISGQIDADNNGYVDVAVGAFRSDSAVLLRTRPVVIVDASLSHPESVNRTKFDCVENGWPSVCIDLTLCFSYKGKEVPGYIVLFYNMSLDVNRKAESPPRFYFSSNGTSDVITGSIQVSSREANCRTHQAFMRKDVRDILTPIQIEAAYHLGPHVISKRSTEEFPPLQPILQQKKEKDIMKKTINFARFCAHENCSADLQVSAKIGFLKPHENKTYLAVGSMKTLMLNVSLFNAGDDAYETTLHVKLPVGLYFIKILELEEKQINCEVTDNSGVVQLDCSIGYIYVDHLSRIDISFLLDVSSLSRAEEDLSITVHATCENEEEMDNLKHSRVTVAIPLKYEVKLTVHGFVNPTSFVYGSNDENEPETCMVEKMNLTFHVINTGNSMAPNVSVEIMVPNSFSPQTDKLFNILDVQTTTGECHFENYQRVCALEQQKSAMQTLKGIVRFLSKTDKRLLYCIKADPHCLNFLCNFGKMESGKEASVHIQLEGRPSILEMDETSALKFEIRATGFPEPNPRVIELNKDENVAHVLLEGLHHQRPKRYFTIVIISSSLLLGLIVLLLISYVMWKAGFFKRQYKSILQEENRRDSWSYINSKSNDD
T1 sequence (P05556 21-798): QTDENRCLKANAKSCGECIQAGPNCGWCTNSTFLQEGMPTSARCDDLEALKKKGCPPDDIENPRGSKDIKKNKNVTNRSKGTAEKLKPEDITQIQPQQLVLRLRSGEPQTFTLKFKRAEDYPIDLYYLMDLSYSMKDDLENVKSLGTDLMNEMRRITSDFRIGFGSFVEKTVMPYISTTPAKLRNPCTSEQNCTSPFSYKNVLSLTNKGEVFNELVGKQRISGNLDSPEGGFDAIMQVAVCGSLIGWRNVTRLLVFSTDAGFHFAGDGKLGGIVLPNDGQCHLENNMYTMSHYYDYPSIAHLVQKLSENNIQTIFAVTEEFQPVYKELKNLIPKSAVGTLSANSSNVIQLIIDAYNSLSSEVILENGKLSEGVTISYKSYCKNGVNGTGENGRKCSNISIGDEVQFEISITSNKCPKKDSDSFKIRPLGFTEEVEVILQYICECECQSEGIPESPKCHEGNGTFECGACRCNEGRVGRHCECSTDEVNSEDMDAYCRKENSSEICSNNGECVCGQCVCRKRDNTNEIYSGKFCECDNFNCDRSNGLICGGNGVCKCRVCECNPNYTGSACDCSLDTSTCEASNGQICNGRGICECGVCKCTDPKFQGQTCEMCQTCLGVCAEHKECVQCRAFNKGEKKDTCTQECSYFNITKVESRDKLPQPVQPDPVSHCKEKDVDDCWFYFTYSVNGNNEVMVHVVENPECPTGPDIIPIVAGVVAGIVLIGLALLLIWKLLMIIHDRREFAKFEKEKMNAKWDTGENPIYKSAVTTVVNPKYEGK
Description: Binding inhibition is measured here as a concentration of compound that inhibits one-half the binding between a standard number of Jurkat cells and a standard amount of CS-1 compound bound to the surface of a microtiter plate well. Those concentrations are conveniently expressed as IC50 values, smaller numbers indicating a lower concentration required to inhibit 50 percent binding and therefore greater potency. Further specifics of this assay are provided hereinafter.
Jurkat cells (ATCC TIB 152), a human T lymphoblastic line, labeled with ^51 chromium were used to assay in vitro binding inhibition provided by various compounds discussed herein.
The plates were prepared as follows: The 25-mer CS-1 compound (SEQ ID NO:1) dissolved at 0.5-1 μg/ml in a buffer of 0.1M NaHCO3 at pH 9.5 that also contained 10 μg/ml of bovine serum albumin (BSA) or a conjugate of the CS-1 compound linked to ovalbumin (CS-1-OVA) dissolved at 1-2.5 μg/ml in the same buffer was used as the substrate. Each well of the microtiter plates was coated with 50 μl of substrate or buffer alone for controls. The wells were permitted to dry out completely and were then rinsed twice with PBS at pH 7.4. Non-specific binding sites of each well were then blocked using 200 μl per well of RPMI/1 percent BSA for two hours at room temperature.
Jurkat cells (3-5×10^6 cells) were placed into a 15 ml Falcon™ round-bottom tube with a cap. The tube was centrifuged, and the extra medium was then removed.
Two hundred microliters of a ^51 Cr labeling solution were added to the centrifuged cells and maintained in contact with the cells for 90-120 minutes in a warm room. […] Longer contact times provide a greater amount of labeling but lower cell viability.
The labeled cells are washed with (i) complete medium, (ii) 1 mM EDTA/PBS and then (iii) RPM1/1 percent BSA free of serum components. The cells are centrifuged after each washing. The cells are finally resuspended in serum-free RPMI/1 percent BSA at a concentration of 1×10^6 viable cells/ml, which provides a concentration that is diluted by one-half in the assay.
Inhibitor compounds are prepared as stock solutions at 20 mg/ml in DMSO in 1.5 ml cryogenic screwcap vials, and were stored at -70° C. Using Flow™ round-bottom or V-bottom microtiter plates, the inhibitor compounds were prepared at twice the assay concentration in RPMI/1 percent BSA at 60 μl/well.
Four initial dilutions were typically used.
The ^51 Cr-labeled cells ([…] at 60 μl/well) were then admixed with the diluted compound solutions. The admixtures were maintained at room temperature (about 22° C.) for 30 minutes.
One hundred microliters of each inhibitor compound/cell admixture were transferred to the substrate-coated wells. This was done in triplicate for each dilution. The resulting plates were incubated for 30 minutes at 37° C. and then washed gently three times with RPMI/1 percent BSA at 200 μl/well. Binding was observed microscopically, particularly after the second wash.
The bound cells were then lysed by the addition of a 0.5 percent solution of sodium dodecylsulfate in water at 100 μl/well. The resulting solutions were then processed for counting and calculation of IC50 values following usual procedures.
The data of Table 1 are normalized to the binding of SEQ ID NO:3. […] Multiple assays for the same compound were averaged.

CC(C)C[C@H](NC(=O)Cc1ccccc1)C(=O)N[C@@H](CC(=O)O)C(=O)N[C@@H](Cc1ccccc1)C(=O)N1CCC[C@@H]1C(N)=O [896.52, N-phenylacetyl-Leu-Asp-Phe-D-Pro-NH2] (PhAc-LDF[dP]-NH2)
clinical signs of EAE (SJL/J mice): marked improvement in clinical signs | loss of potency in serum-containing buffer [1]: no loss of potency | IC50 value, times less than the IC50 value for the standard 10-mer (VLA-4 receptor; as shown in Table 1): about 312 times | Relative Potency (VLA-4 receptor): 313

CC(C)C[C@H](NC(=O)[C@H](CC(=O)O)NC(=O)Cc1ccccc1)C(=O)N[C@@H](Cc1ccccc1)C(=O)N1CCC[C@@H]1C(N)=O [N-phenylacetyl-Asp-Leu-Phe-D-Pro-NH2, reference compound] (PhAc-DLF[dP]-NH2)
binding inhibition, in words (compared with standard 10-mer of SEQ ID NO:3 or other compounds) (VLA-4 receptor): no inhibition of VLA-4 | Relative Potency (VLA-4 receptor): 0

— patent publication US5936065A, “CS-1 peptidomimetics, compositions and methods of using the same” (Cytel Corporation, priority 1995, dated 1999)
